The results in this text go back to PubChem BioAssay AID328 (DTP/NCI, 2004).

The assay relates to BDF1 mice, P388 leukemia ip, median survival T/C. The assay can be described thus: NCI In Vivo Anticancer Drug Screen. Data for tumor model P388 Leukemia (intraperitoneal) in B6D2F1 (BDF1) mice. The note with it: endpoint: median survival time, higher = longer survival. The method in brief: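 Compound-treated tumour-bearing mice were compared with vehicle-treated controls. Survival was recorded, and the value is the treated-group measurement divided by the control-group measurement (T/C).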

Setting [1] is: dose: 100.0 mg/kg/injection, schedule: Q01DX009 (ip), vehicle: Klucel (hydroxypropylcellulose) (HPC).
[2] abbreviates: dose: 200.0 mg/kg/injection, schedule: Q01DX009 (ip), vehicle: Klucel (hydroxypropylcellulose) (HPC).
[3] abbreviates: dose: 400.0 mg/kg/injection, schedule: Q01DX009 (ip), vehicle: Klucel (hydroxypropylcellulose) (HPC).
The mark [4] stands for this setting: dose: 25.0 mg/kg/injection, schedule: Q01DX009 (ip), vehicle: Klucel (hydroxypropylcellulose) (HPC).
Setting [5] is: dose: 50.0 mg/kg/injection, schedule: Q01DX009 (ip), vehicle: Klucel (hydroxypropylcellulose) (HPC).
Where [6] appears, read: dose: 12.5 mg/kg/injection, schedule: Q01DX009 (ip), vehicle: Klucel (hydroxypropylcellulose) (HPC).
The mark [7] stands for this setting: dose: 100.0 mg/kg/injection, schedule: Q01DX009 (ip), vehicle: saline with Tween-80.
Where [8] appears, read: dose: 12.5 mg/kg/injection, schedule: Q01DX009 (ip), vehicle: saline with Tween-80.
The mark [9] stands for this setting: dose: 25.0 mg/kg/injection, schedule: Q01DX009 (ip), vehicle: saline with Tween-80.
Where [10] appears, read: dose: 100.0 mg/kg/injection, schedule: Q04DX003 (ip), vehicle: saline with Tween-80.
Where [11] appears, read: dose: 200.0 mg/kg/injection, schedule: Q04DX003 (ip), vehicle: saline with Tween-80.
[12] abbreviates: dose: 400.0 mg/kg/injection, schedule: Q04DX003 (ip), vehicle: saline with Tween-80.

Values joined by “and” are separate entries in the source; they are usually repeats but may differ in a detail not shown here. Equal values may be shown once. Toxic doses and inconclusive results are not listed.

On to `NC(Cn1cc(N(CCCl)CCCl)c(=O)[nH]c1=O)C(=O)O` (centres undefined), for which the T/C (dose: 6.0 mg/kg/injection, schedule: Q01DX009 (ip), vehicle: saline) was 175 % of control; the T/C (dose: 12.0 mg/kg/injection, schedule: Q01DX009 (ip), vehicle: saline) is 189 % of control; the T/C (dose: 24.0 mg/kg/injection, schedule: Q01DX009 (ip), vehicle: saline) was 215 % of control.
Take `O=CNc1c(Cl)c(Cl)c2c(c1Cl)Cc1cc(Cl)ccc1-2`: the T/C reads like this: (dose: 0.18 mg/kg/injection, schedule: Q01DX009 (ip), vehicle: DMSO) 91 % of control; (dose: 0.37 mg/kg/injection, schedule: Q01DX009 (ip), vehicle: DMSO) 95 % of control; (dose: 0.75 mg/kg/injection, schedule: Q01DX009 (ip), vehicle: DMSO) 100 % of control; (dose: 3.0 mg/kg/injection, schedule: Q01DX009 (ip), vehicle: DMSO) 89 % of control; (dose: 12.5 mg/kg/injection, schedule: Q01DX009 (ip), vehicle: DMSO) 96 % of control; (dose: 50.0 mg/kg/injection, schedule: Q01DX001 (ip), vehicle: Klucel (hydroxypropylcellulose) (HPC)) 90 % of control. The T/C is, setting by setting: (dose: 100.0 mg/kg/injection, schedule: Q01DX001 (ip), vehicle: Klucel (hydroxypropylcellulose) (HPC)) 90 % of control; under setting [1], 116 % of control; (dose: 100.0 mg/kg/injection, schedule: Q04DX003 (ip), vehicle: Klucel (hydroxypropylcellulose) (HPC)) 90 % of control and 100 % of control; (dose: 200.0 mg/kg/injection, schedule: Q01DX001 (ip), vehicle: Klucel (hydroxypropylcellulose) (HPC)) 86 % of control; under setting [2], 116 % of control; (dose: 200.0 mg/kg/injection, schedule: Q04DX003 (ip), vehicle: Klucel (hydroxypropylcellulose) (HPC)) 90 % of control and 91 % of control. In addition, the T/C was 105 % of control under setting [3]; 86 % of control and 87 % of control (dose: 400.0 mg/kg/injection, schedule: Q04DX003 (ip), vehicle: Klucel (hydroxypropylcellulose) (HPC)).
Consider `O=C(CSCSCC(=O)Nc1ccc(C2=NCCN2)cc1)Nc1ccc(C2=NCCN2)cc1`, for which the T/C is, setting by setting: (dose: 10.0 mg/kg/injection, schedule: Q01DX009 (ip), vehicle: Klucel (hydroxypropylcellulose) (HPC)) 91 % of control; (dose: 12.5 mg/kg/injection, schedule: Q04DX003 (ip), vehicle: saline) 100 % of control; under setting [4], 100 % of control and 115 % of control; under setting [5], 165 % of control; (dose: 50.0 mg/kg/injection, schedule: Q04DX003 (ip), vehicle: saline) 104 % of control and 109 % of control; (dose: 75.0 mg/kg/injection, schedule: Q04DX003 (ip), vehicle: saline) 104 % of control. In addition, the T/C by setting is: under setting [1], 90 % of control; (dose: 100.0 mg/kg/injection, schedule: Q04DX003 (ip), vehicle: saline) 114 % of control; (dose: 135.0 mg/kg/injection, schedule: Q04DX003 (ip), vehicle: saline) 157 % of control; (dose: 200.0 mg/kg/injection, schedule: Q04DX003 (ip), vehicle: saline) 157 % of control.
On to `c1ccc2cc(-c3cc4ccccc4s3)ccc2c1`, for which the T/C is, setting by setting: (dose: 50.0 mg/kg/injection, schedule: Q01DX010 (ip), vehicle: saline) 95 % of control; under setting [1], 120 % of control; (dose: 100.0 mg/kg/injection, schedule: Q01DX010 (ip), vehicle: saline) 100 % of control; under setting [2], 120 % of control; (dose: 200.0 mg/kg/injection, schedule: Q01DX010 (ip), vehicle: saline) 100 % of control; under setting [3], 115 % of control. Also, where the note is “dose: 400.0 mg/kg/injection, schedule: Q01DX010 (ip), vehicle: saline”, the T/C is 100 % of control.
In the case of `CC(=O)NC1CCCN(O)C(=O)/C=C(/C)CCOC(=O)C(NC(C)=O)CCCN(O)C(=O)/C=C(/C)CCOC(=O)C(NC(C)=O)CCCN(O)C(=O)/C=C(/C)CCOC1=O.[Fe]` (centres undefined), the T/C was 86 % of control under setting [6], 92 % of control under setting [4] and 99 % of control under setting [5].
As to `O=C(Cl)C1C2CC1C(Cl)C2Cl` (centres undefined), the T/C runs as follows: (dose: 50.0 mg/kg/injection, schedule: Q01DX009 (ip), vehicle: saline with Tween-80) 103 % of control; under setting [7], 108 % of control; (dose: 200.0 mg/kg/injection, schedule: Q01DX009 (ip), vehicle: saline with Tween-80) 107 % of control.
For `CCC(O)C(C)C(O)C(C)C(O)C(C)C(O)C(C)C1OC(=O)CC(O)C(C)C(O)CC(O)CCCC(O)CCC(C)C(O)C2(O)C(=O)CC(CC(O)CC(O)CC(O)CC(O)CCCC(O)C1O)OC2=O` (centres undefined), the T/C reads like this: (dose: 2.5 mg/kg/injection, schedule: Q01DX009 (ip), vehicle: saline) 92 % of control; (dose: 5.0 mg/kg/injection, schedule: Q01DX009 (ip), vehicle: saline) 109 % of control; (dose: 10.0 mg/kg/injection, schedule: Q01DX009 (ip), vehicle: saline) 109 % of control.
For the compound `CCc1cc2c(cc1C(=O)CBr)C(C)(C)CCC2(C)C`, the T/C runs as follows: (dose: 3.12 mg/kg/injection, schedule: Q01DX009 (ip), vehicle: Klucel (hydroxypropylcellulose) (HPC)) 110 % of control; (dose: 3.8 mg/kg/injection, schedule: Q04DX003 (ip), vehicle: Klucel (hydroxypropylcellulose) (HPC)) 113 % of control; (dose: 5.7 mg/kg/injection, schedule: Q04DX003 (ip), vehicle: Klucel (hydroxypropylcellulose) (HPC)) 113 % of control; (dose: 6.25 mg/kg/injection, schedule: Q01DX009 (ip), vehicle: Klucel (hydroxypropylcellulose) (HPC)) 105 % of control; under setting [6], 110 % of control; (dose: 23.0 mg/kg/injection, schedule: Q04DX003 (ip), vehicle: Klucel (hydroxypropylcellulose) (HPC)) 100 % of control. For the same compound, for the setting “dose: 52.5 mg/kg/injection, schedule: Q04DX003 (ip), vehicle: Klucel (hydroxypropylcellulose) (HPC)”, the T/C is 120 % of control.
For the compound `O=C1C=C(O/C=C/C(C(F)(F)F)C(F)(F)F)C(=O)c2ccccc21`, under setting [7], the T/C is 109 % of control.
`Nc1ccc(OCc2ccccc2)cc1`: the T/C was 90 % of control (dose: 6.25 mg/kg/injection, schedule: Q01DX009 (ip), vehicle: saline with Tween-80); 100 % of control under setting [8]; 100 % of control under setting [9]; 95 % of control (dose: 25.0 mg/kg/injection, schedule: Q04DX003 (ip), vehicle: saline with Tween-80); 100 % of control (dose: 50.0 mg/kg/injection, schedule: Q04DX003 (ip), vehicle: saline with Tween-80); 100 % of control under setting [10].
For the compound `CCOC(=O)C(=CN1CCCC1)C(=O)OCC`, the T/C runs as follows: under setting [10], 100 % of control; under setting [11], 100 % of control; under setting [12], 109 % of control.
As for `O=C1NC(C2CC3C=CC2C3)Nc2ccccc21` (centres undefined), the T/C by setting is: under setting [6], 104 % of control; (dose: 12.5 mg/kg/injection, schedule: Q04DX003 (ip), vehicle: Klucel (hydroxypropylcellulose) (HPC)) 100 % of control; under setting [4], 104 % of control; (dose: 25.0 mg/kg/injection, schedule: Q04DX003 (ip), vehicle: Klucel (hydroxypropylcellulose) (HPC)) 86 % of control; under setting [5], 95 % of control.
With `Nc1ncnc2[nH]c(=O)[nH]c12`, the T/C by setting is: under setting [8], 104 % of control; under setting [9], 109 % of control; under setting [11], 104 % of control; under setting [12], 114 % of control.
Consider `O=C1c2ccccc2C(=O)N1CNc1ncccn1`, for which the T/C is 95 % of control (dose: 6.25 mg/kg/injection, schedule: Q01DX005 (ip), vehicle: saline with Tween-80); 98 % of control (dose: 12.5 mg/kg/injection, schedule: Q01DX005 (ip), vehicle: saline with Tween-80); 90 % of control (dose: 25.0 mg/kg/injection, schedule: Q01DX005 (ip), vehicle: saline with Tween-80); 108 % of control (dose: 100.0 mg/kg/injection, schedule: Q01DX005 (ip), vehicle: saline with Tween-80); 105 % of control (dose: 200.0 mg/kg/injection, schedule: Q01DX005 (ip), vehicle: saline with Tween-80).
